Data published in patent publication US20230391772A1, “METHODS AND COMPOSITIONS FOR TARGETED PROTEIN DEGRADATION” (Ranok Therapeutics (Hangzhou) Co. Ltd., priority 2020, published 2023).

Legend:
[1] = molecular target: T1, HSP90a protein (Homo sapiens, UniProt P07900); assay: HSP90α-binding fluorescent polarization (FP) assay, FITC-geldanamycin probe; conditions: FP competition with FITC-geldanamycin, 5 nM, 120 min at 25° C.
T1 construct: purchased BPS Bioscience 50298
Procedure: HSP90α-Binding Fluorescent Polarization (FP) Assay
Binding of test compounds to HSP90a protein was measured by fluorescent polarization (FP) using the HSP90a (N-terminal) Assay Kit (BPS Bioscience, #50298), following the manufacturer's instructions, except as noted. Fluorescently labeled HSP90-binding compounds, either the provided FITC-geldanamycin (5 nM final concentration) or RNK04010, a triazolone-based HSP90 binding small molecule labeled with BODIPY through a piperizine-phenyl linker (5 nM final concentration) were employed. A 2.5-fold serial dilution of each test compound ranging from 20 μM to 5.2 nM was assayed for binding to HSP90a. After the final step of adding HSP90a protein to each assay well, plates were mixed by brief shaking, incubated at 25° C. for 120 min for FITC-geldanamycin or 300 min for RNK04010, and fluorescence was measured using a PerkinElmer EnVision Plate Reader.

[2] = test system: NCI-H358 human non-small cell lung cancer; assay: NCI-H358 CCK-8 proliferation assay; assay type: cell-based; conditions: NCI-H358 cells, 72 hr
How it was run: (§1)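 Proliferation of mutant-KRAS(G12C) cells (2 copies in MIA PaCa-2, single copy in NCI-H358/NCI-H23) measured with CCK-8 after treatment across 20 μM–1.02 nM; inhibition expressed relative to vehicle-treated wells after subtracting no-cell background.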

[3] = molecular target: T1, HSP90a protein; assay: HSP90α-binding fluorescent polarization (FP) assay, BODIPY-labeled RNK04010 probe; conditions: FP competition with RNK04010 (BODIPY-labeled), 5 nM, 300 min at 25° C.
How it was run: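 Polarization signal was read after equilibration at 25° C, for 120 min with FITC-geldanamycin or 300 min with the BODIPY-tagged RNK04010 probe, each at 5 nM final. Compounds spanned 20 μM down to 5.2 nM in 2.5-fold dilutions against the HSP90a N-terminal domain.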

[4] = test system: MIA PaCa-2 human pancreatic carcinoma; assay: MIA PaCa-2 CCK-8 proliferation assay; assay type: cell-based; conditions: Homo sapiens, MIA PaCa-2, 72 h, MIA PaCa-2 cells
How it was run: as §1

Structure (SMILES)	IC50 [1]	EC50 [2]	IC50 [3]	EC50 [4]
C=C(F)C(=O)N1CCN(c2nc(N3CCC(Cc4ccc(-n5c(C(=O)NCC(F)(F)F)nnc5-c5cc(C(C)C)c(O)cc5O)cc4)CC3)nc3c2CCN(c2cccc4cccc(Cl)c24)C3)C[C@@H]1CC#N [Compound 142, (S)-4-(4-((1-(7-(8-chloronaphthalen-1-yl)-4-(3-(cyanomethyl)-4-(2-fluoroacryloyl)piperazin-1-yl)-5,6,7,8-tetrahydropyrido[3,4-d]pyrimidin-2-yl)piperidin-4-yl)methyl)phenyl)-5-(2,4-dihydroxy-5-isopropylphenyl)-N-(2,2,2-trifluoroethyl)-4H-1,2,4-triazole-3-carboxamide]	> 1000 nM	> 1000 nM		
CCC(=O)N1CCN(c2nc(OC[C@@H]3CCN(C(=O)C4CCN(Cc5ccc(-n6c(O)nnc6-c6cc(C(C)C)c(O)cc6O)cc5)CC4)C3)nc3c2CCN(c2cccc4cccc(Cl)c24)C3)C[C@@H]1CC#N [Compound 141, 2-((S)-4-(7-(8-chloronaphthalen-1-yl)-2-(((R)-1-(1-(4-(3-(2,4-dihydroxy-5-isopropylphenyl)-5-hydroxy-4H-1,2,4-triazol-4-yl)benzyl)piperidine-4-carbonyl)pyrrolidin-3-yl)methoxy)-5,6,7,8-tetrahydropyrido[3,4-d]pyrimidin-4-yl)-1-propionylpiperazin-2-yl)acetonitrile]	100 to 1000 nM	100 to 1000 nM		
C=C(F)C(=O)N1CCN(c2nc(N3CCC(CN4CCN(Cc5ccc(-n6c(O)nnc6-c6cc(CC)c(O)cc6O)cc5)CC4)CC3)nc3c2CCN(c2cccc4cccc(Cl)c24)C3)C[C@@H]1CC#N [Compound 135, (S)-2-(4-(7-(8-chloronaphthalen-1-yl)-2-(4-((4-(4-(3-(5-ethyl-2,4-dihydroxyphenyl)-5-hydroxy-4H-1,2,4-triazol-4-yl)benzyl)piperazin-1-yl)methyl)piperidin-1-yl)-5,6,7,8-tetrahydropyrido[3,4-d]pyrimidin-4-yl)-1-(2-fluoroacryloyl)piperazin-2-yl)acetonitrile]	100 to 1000 nM	> 1000 nM		
C=C(F)C(=O)N1CCN(c2nc(N3CCC(CN4CCN(Cc5ccc(-n6c(C(=O)NCC(F)(F)F)nnc6-c6cc(CC)c(O)cc6O)cc5)CC4)CC3)nc3c2CCN(c2cccc4cccc(Cl)c24)C3)C[C@@H]1CC#N [Compound 138, (S)-4-(4-((4-((1-(7-(8-chloronaphthalen-1-yl)-4-(3-(cyanomethyl)-4-(2-fluoroacryloyl)piperazin-1-yl)-5,6,7,8-tetrahydropyrido[3,4-d]pyrimidin-2-yl)piperidin-4-yl)methyl)piperazin-1-yl)methyl)phenyl)-5-(5-ethyl-2,4-dihydroxyphenyl)-N-(2,2,2-trifluoroethyl)-4H-1,2,4-triazole-3-carboxamide]	> 1000 nM	> 1000 nM		
CC(C)c1cc(-c2nnc(O)n2-c2ccc(CN3CCN(C4CCN(c5nc6c(c(N7CCN(C(=O)C(F)(F)F)[C@@H](CC#N)C7)n5)CCN(c5cccc7cccc(Cl)c57)C6)CC4)CC3)cc2)c(O)cc1O [Compound 136, (S)-2-(4-(7-(8-chloronaphthalen-1-yl)-2-(4-(4-(4-(3-(2,4-dihydroxy-5-isopropylphenyl)-5-hydroxy-4H-1,2,4-triazol-4-yl)benzyl)piperazin-1-yl)piperidin-1-yl)-5,6,7,8-tetrahydropyrido[3,4-d]pyrimidin-4-yl)-1-(2,2,2-trifluoroacetyl)piperazin-2-yl)acetonitrile]	> 1000 nM	100 to 1000 nM		
CCC(=O)N1CCN(c2nc(NCCCNC(=O)C3CCN(Cc4ccc(-n5c(O)nnc5-c5cc(C(C)C)c(O)cc5O)cc4)CC3)nc3c2CCN(c2cccc4cccc(Cl)c24)C3)C[C@@H]1CC#N [Compound 134, (S)—N-(3-((7-(8-chloronaphthalen-1-yl)-4-(3-(cyanomethyl)-4-propionylpiperazin-1-yl)-5,6,7,8-tetrahydropyrido[3,4-d]pyrimidin-2-yl)amino)propyl)-1-(4-(3-(2,4-dihydroxy-5-isopropylphenyl)-5-hydroxy-4H-1,2,4-triazol-4-yl)benzyl)piperidine-4-carboxamide, trifluoroacetic acid]	100 to 1000 nM	> 1000 nM		

Now from value to compound:

IC50 [1]	EC50 [2]	IC50 [3]	EC50 [4]	Structure (SMILES)
100 to 1000 nM	100 to 1000 nM			CCC(=O)N1CCN(c2nc(NCCC(=O)NCCc3ccc(CN4CCC(Cc5ccc(-n6c(C(=O)NCC(F)(F)F)nnc6-c6cc(C(C)C)c(O)cc6O)cc5)CC4)cc3)nc3c2CCN(c2cc(O)cc4ccccc24)C3)CC1 [Compound 149]
> 1000 nM		> 1000 nM	> 1000 nM	C=CC(=O)N1CCN(c2nc(OC[C@@H]3CCN(C(=O)c4ccc5c(c4)CN(C(=O)c4cc(C(C)C)c(OC)cc4O)C5)C3)nc3c2CCN(c2cccc4cccc(Cl)c24)C3)C[C@@H]1CC#N [Compound 173, 2-((S)-1-acryloyl-4-(7-(8-chloronaphthalen-1-yl)-2-(((R)-1-(2-(2-hydroxy-5-isopropyl-4-methoxybenzoyl)isoindoline-5-carbonyl)pyrrolidin-3-yl)methoxy)-5,6,7,8-tetrahydropyrido[3,4-d]pyrimidin-4-yl)piperazin-2-yl)acetonitrile]
100 to 1000 nM	> 1000 nM			C=C(F)C(=O)N1CCN(c2nc(OC[C@@H]3CCCN3C(=O)C3CCN(Cc4ccc(-n5c(O)nnc5-c5cc(C(C)C)c(O)cc5O)cc4)CC3)nc3c2CCN(c2cccc4cccc(Cl)c24)C3)C[C@@H]1CC#N [Compound 144, 2-((S)-4-(7-(8-chloronaphthalen-1-yl)-2-(((S)-1-(1-(4-(3-(2,4-dihydroxy-5-isopropylphenyl)-5-hydroxy-4H-1,2,4-triazol-4-yl)benzyl)piperidine-4-carbonyl)pyrrolidin-2-yl)methoxy)-5,6,7,8-tetrahydropyrido[3,4-d]pyrimidin-4-yl)-1-(2-fluoroacryloyl)piperazin-2-yl)acetonitrile]
100 to 1000 nM	100 to 1000 nM			CCC(=O)N1CCN(c2nc(OCCC(=O)NCCc3ccc(CN4CCC(Cc5ccc(-n6c(C(=O)NCC(F)(F)F)nnc6-c6cc(C(C)C)c(O)cc6O)cc5)CC4)cc3)nc3c2CCN(c2cc(O)cc4ccccc24)C3)CC1 [Compound 151, 5-(2,4-dihydroxy-5-isopropylphenyl)-4-(4-((1-(4-(2-(3-((7-(3-hydroxynaphthalen-1-yl)-4-(4-propionylpiperazin-1-yl)-5,6,7,8-tetrahydropyrido[3,4-d]pyrimidin-2-yl)oxy)propanamido)ethyl)benzyl)piperidin-4-yl)methyl)phenyl)-N-(2,2,2-trifluoroethyl)-4H-1,2,4-triazole-3-carboxamide]
> 1000 nM			> 1000 nM	C=C(F)C(=O)N1CCN(c2nc(OC[C@@H]3CCN(C(=O)c4cc(C(C)C)c(O)cc4O)C3)nc3c2CCN(c2cccc4cccc(Cl)c24)C3)C[C@@H]1CC#N [Compound 171, 2-((S)-4-(7-(8-chloronaphthalen-1-yl)-2-(((R)-1-(2,4-dihydroxy-5-isopropylbenzoyl)pyrrolidin-3-yl)methoxy)-5,6,7,8-tetrahydropyrido[3,4-d]pyrimidin-4-yl)-1-(2-fluoroacryloyl)piperazin-2-yl)acetonitrile]
> 1000 nM		> 1000 nM	> 1000 nM	C=C(F)C(=O)N1CCN(c2nc(OC[C@@H]3CCN(C(=O)c4cc(CC)c(O)cc4O)C3)nc3c2CCN(c2cccc4cccc(Cl)c24)C3)C[C@@H]1CC#N [Compound 174, 2-((S)-4-(7-(8-chloronaphthalen-1-yl)-2-(((R)-1-(5-ethyl-2,4-dihydroxybenzoyl)pyrrolidin-3-yl)methoxy)-5,6,7,8-tetrahydropyrido[3,4-d]pyrimidin-4-yl)-1-(2-fluoroacryloyl)piperazin-2-yl)acetonitrile]
100 to 1000 nM			> 1000 nM	C=C(F)C(=O)N1CCN(c2nc(OC[C@@H]3CCN(CCCOCCC(=O)NCc4ccc(-n5c(O)nnc5-c5cc(C(C)C)c(O)cc5O)cc4)C3)nc3c2CCN(c2cccc4cccc(Cl)c24)C3)C[C@@H]1CC#N [Compound 170]
100 to 1000 nM			> 1000 nM	C=C(F)C(=O)N1CCN(c2nc(OC[C@@H]3CCN(C(=O)c4ccc5c(c4)CN(C(=O)c4cc(C(C)C)c(O)cc4O)C5)C3)nc3c2CCN(c2cccc4cccc(Cl)c24)C3)C[C@@H]1CC#N [Compound 165, 2-((S)-4-(7-(8-chloronaphthalen-1-yl)-2-(((R)-1-(2-(2,4-dihydroxy-5-isopropylbenzoyl)isoindoline-5-carbonyl)pyrrolidin-3-yl)methoxy)-5,6,7,8-tetrahydropyrido[3,4-d]pyrimidin-4-yl)-1-(2-fluoroacryloyl)piperazin-2-yl)acetonitrile]
